Here are results for 80 compounds from patent US7935724B2, “Thiophene and benzothiophene hydroxamic acid derivatives” (Merck HDAC Research, LLC, priority 2003, dated 2011).

The target of the assay is T1, histone deacetylase, subtype 1 (HDAC1) (Homo sapiens, UniProt Q13547).
T1 construct: Flag; made in house
Nature of the assay: HDAC1-Flag assay (in vitro deacetylation assay). The following applies: concentration for 50% inhibition of deacetylation, substrate at Km, unit inferred, text gives nm, read-out: HDAC Inhibition. Format: biochemical. The protocol: Novel compounds were tested for their ability to inhibit histone deacetylase, subtype 1 (HDAC1) using an in vitro deacetylation assay. The enzyme source for this assay was an epitope-tagged human HDAC1 complex immuno-purified from stably expressing mammalian cells. The substrate consisted of a commercial product containing an acetylated lysine side chain (BIOMOL Research Laboratories, Inc., Plymouth Meeting, Pa.). Upon deacetylation of the substrate by incubation with the purified HDAC1 complex, a fluorophore is produced that is directly proportional to the level of deacetylation.

The mark [1] stands for this setting: Table 1, benzothiophene backbone.

Like-named read-outs stand apart in the source and are kept apart here.

T1 sequence (Q13547 whole entry): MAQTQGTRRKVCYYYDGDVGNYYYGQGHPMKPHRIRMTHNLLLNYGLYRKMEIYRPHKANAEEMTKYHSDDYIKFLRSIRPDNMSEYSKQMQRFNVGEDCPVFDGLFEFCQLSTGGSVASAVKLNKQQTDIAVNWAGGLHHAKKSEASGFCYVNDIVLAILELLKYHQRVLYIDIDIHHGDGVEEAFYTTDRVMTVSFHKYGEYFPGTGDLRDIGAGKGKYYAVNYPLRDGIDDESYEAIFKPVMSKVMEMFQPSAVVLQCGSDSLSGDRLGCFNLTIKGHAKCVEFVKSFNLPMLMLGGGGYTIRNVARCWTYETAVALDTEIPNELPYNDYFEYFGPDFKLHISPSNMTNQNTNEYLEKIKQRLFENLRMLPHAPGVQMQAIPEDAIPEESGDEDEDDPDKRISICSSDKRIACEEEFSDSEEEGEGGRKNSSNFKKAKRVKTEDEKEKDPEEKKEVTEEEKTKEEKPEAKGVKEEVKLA

In the case of `COc1ccc(CNC(=O)c2ccc3sc(C(=O)NO)cc3c2)cc1` [Compound 168], under setting [1], the IC50 stood at 36 ± 1.4 nM.

Regarding `O=C(CCc1ccc(C(=O)NO)s1)Nc1ccccc1` [Compound 80], the IC50 (Table 2, thiophene backbone) turned out to be 481 nM.

For the compound `O=C(NO)c1cc2cc(NS(=O)(=O)Cc3ccccc3)ccc2s1` [Compound 19], the IC50 under setting [1] is 119 ± 21.9 nM.

Turning to `COc1cccc(-c2ccc(C(=O)NO)s2)c1` [Compound 55], the IC50 (Table 2, thiophene backbone) was 444 ± 54.4 nM.

For the compound `O=C(NO)c1cc2cc(NS(=O)(=O)c3ccccc3)ccc2s1` [Compound 26], the IC50 under setting [1] worked out at 166 ± 22.6 nM.

For the compound `O=C(NCc1ccccc1)Nc1ccc2sc(C(=O)NO)cc2c1` [Compound 40], the IC50 under setting [1] turned out to be 72 nM.

`O=C(NCc1ccccc1)c1ccc2cc(C(=O)NO)sc2c1` [Compound 92]: the IC50 under setting [1] came to 53 ± 7 nM.

Regarding `O=C(Nc1nc(-c2ccccc2)cs1)c1ccc2cc(C(=O)NO)sc2c1` [Compound 183], the IC50 under setting [1] stood at 4140 ± 1890 nM.

For the compound `O=C(NO)c1cc2ccc(CNCc3ccccc3)cc2s1` [Compound 192], under setting [1], the IC50 was 53 nM.

Consider `O=C(Cc1cccc(F)c1)Nc1ccc2cc(C(=O)NO)sc2c1` [Compound 50], for which the IC50 under setting [1] stood at 14 nM.

In the case of `COc1ccccc1CC(=O)Nc1ccc2cc(C(=O)NO)sc2c1` [Compound 52], under setting [1], the IC50 worked out at 20 nM.

On to `O=C(NCc1ccccc1)Nc1ccc2cc(C(=O)NO)sc2c1` [Compound 7], for which, under setting [1], the IC50 amounted to 52 ± 19.7 nM.

With `COc1ccc(CC(=O)Nc2ccc3sc(C(=O)NO)cc3c2)cc1` [Compound 96], the IC50 under setting [1] came to 83 ± 21.2 nM.

With `O=C(NC1CCc2ccccc21)c1ccc2cc(C(=O)NO)sc2c1` (centres unmarked) [Compound 138], the IC50 under setting [1] came to 922 ± 174 nM.

For `O=C(NCc1ccccc1Cl)c1ccc2sc(C(=O)NO)cc2c1` [Compound 169], the IC50 under setting [1] turned out to be 66.5 ± 2.1 nM.

On to `O=C(NO)c1ccc(-c2cccc(CN(CCCc3ccccc3)Cc3ccnc4ccccc34)c2)s1` [Compound 75], for which, for the setting “Table 2, thiophene backbone”, the IC50 was determined as 920 ± 569 nM.

`O=C(CN1CCOCC1)Nc1ccc2cc(C(=O)NO)sc2c1` [Compound 116]: the IC50 under setting [1] is 84 ± 5.6 nM.

In the case of `O=C(NCc1cccc(Cl)c1)c1ccc2sc(C(=O)NO)cc2c1` [Compound 170], under setting [1], the IC50 worked out at 88 nM.

As for `O=C(CN1CCc2ccccc2C1)Nc1ccc2cc(C(=O)NO)sc2c1` [Compound 47], the IC50 under setting [1] was 24 nM.

Consider `CC(C)C(=O)Nc1ccc2cc(C(=O)NO)sc2c1` [Compound 9], for which the IC50 under setting [1] worked out at 156 ± 33.2 nM.

As for `O=C(NO)c1ccc(-c2cccc(CN3CCc4ccccc4C3)c2)s1` [Compound 68], the IC50 (Table 2, thiophene backbone) is 417 nM.

For `O=C(CCc1ccc(C(=O)NO)s1)NCCCc1ccccc1` [Compound 82], the IC50 (Table 2, thiophene backbone) stood at 526 nM.

Consider `COc1ccc(OC)c(CC(=O)Nc2ccc3sc(C(=O)NO)cc3c2)c1` [Compound 87], for which the IC50 under setting [1] is 111 ± 23.3 nM.

As to `O=C(NO)c1cc2cc(C(F)(F)F)ccc2s1` [Compound 2], the IC50 under setting [1] came to 609 ± 24.7 nM.

For the compound `O=C(NO)c1cc2cc(CNCc3nc4ccccc4[nH]3)ccc2s1` [Compound 141], the IC50 under setting [1] was found to be 116 ± 3.5 nM.

Turning to `O=C(NO)c1ccc(-c2cccc(CN3CCN(c4ccccc4)CC3)c2)s1` [Compound 69], the IC50 (Table 2, thiophene backbone) turned out to be 174 nM.

For `O=C(CCc1ccc(C(=O)NO)s1)Nc1nc2ccccc2s1` [Compound 197], the IC50 (Table 2, thiophene backbone) turned out to be 134 ± 7.7 nM.

Take `O=C(NO)c1ccc(-c2cccc(CN(CCCc3ccccc3)Cc3cnc4ccccc4c3)c2)s1` [Compound 74]: for the setting “Table 2, thiophene backbone”, the IC50 was 461 nM.

As for `CC(=O)N1CCN(CC(=O)Nc2ccc3cc(C(=O)NO)sc3c2)CC1` [Compound 114], the IC50 under setting [1] is 150 ± 12.7 nM.

Take `CC(C)(C(=O)Nc1ccc2cc(C(=O)NO)sc2c1)c1ccc(Cl)cc1` [Compound 159]: the IC50 under setting [1] was 536 ± 168 nM.

Regarding `CCOC(=O)Nc1ccc2sc(C(=O)NO)cc2c1` [Compound 34], the IC50 under setting [1] turned out to be 238 ± 2.8 nM.

Consider `O=C(NO)c1cc2ccc(NS(=O)(=O)c3ccccc3)cc2s1` [Compound 10], for which, under setting [1], the IC50 came to 46.5 ± 23.3 nM.

`O=C(NO)c1cc2cc(N(Cc3ccccc3)Cc3ccccc3)ccc2s1` [Compound 21]: the IC50 under setting [1] is 949 ± 834 nM.

Turning to `O=C(NO)c1ccc(-c2cccc(CN(CCc3ccccc3)Cc3ccccc3)c2)s1` [Compound 62], the IC50 (Table 2, thiophene backbone) turned out to be 933 ± 22.6 nM.

As for `O=C(CN1CCN(c2cccc(Cl)c2)CC1)Nc1ccc2cc(C(=O)NO)sc2c1` [Compound 120], the IC50 under setting [1] came out at 97 ± 21 nM.

On to `O=C(NO)c1ccc(-c2cccc(CN(CCCc3ccccc3)Cc3ccccc3)c2)s1` [Compound 76], for which, where the note is “Table 2, thiophene backbone”, the IC50 turned out to be 1010 nM.

As for `O=C(/C=C/c1ccc(C(=O)NO)s1)NC1CCCCC1` [Compound 79], the IC50 (Table 2, thiophene backbone) came out at 666 nM.

With `O=C(NCCc1c[nH]c2ccccc12)c1ccc2sc(C(=O)NO)cc2c1` [Compound 173], under setting [1], the IC50 is 129 ± 18.3 nM.

On to `CC(C)C(=O)Nc1ccc2sc(C(=O)NO)cc2c1` [Compound 35], for which, under setting [1], the IC50 stood at 149 ± 23.3 nM.

As to `O=C(CCc1ccc(C(=O)NO)s1)NCC1CCCCC1` [Compound 196], for the setting “Table 2, thiophene backbone”, the IC50 was 1450 ± 111 nM.

In the case of `O=C(NC1CCN(Cc2ccccc2)CC1)c1ccc2cc(C(=O)NO)sc2c1` [Compound 129], the IC50 under setting [1] is 261 ± 89.2 nM.

As for `O=C(NO)c1ccc(-c2cccc(CN(Cc3ccccc3)Cc3cnc4ccccc4c3)c2)s1` [Compound 70], under “Table 2, thiophene backbone”, the IC50 was 399 nM.

Turning to `O=C(CN1CCCN(C(=O)OCc2ccccc2)CC1)Nc1ccc2cc(C(=O)NO)sc2c1` [Compound 121], the IC50 under setting [1] is 184 ± 58.2 nM.

Turning to `O=C(NCc1ccccc1)c1ccc(-c2ccc(C(=O)NO)s2)cc1` [Compound 60], the IC50 (Table 2, thiophene backbone) is 464 ± 65 nM.

Take `CCOC(=O)N1CCN(CC(=O)Nc2ccc3cc(C(=O)NO)sc3c2)CC1` [Compound 122]: under setting [1], the IC50 is 163 ± 35.2 nM.

For the compound `COc1ccc(C(=O)Nc2ccc3cc(C(=O)NO)sc3c2)cc1OC` [Compound 48], under setting [1], the IC50 is 280 nM.

Turning to `O=C(NO)c1ccc(-c2ccccc2)s1` [Compound 54], the IC50 (Table 2, thiophene backbone) was determined as 219 nM.

As for `O=C(CCc1ccccc1)Nc1ccc2sc(C(=O)NO)cc2c1` [Compound 4], under setting [1], the IC50 was determined as 61 ± 9.8 nM.

For the compound `COc1ccccc1CNC(=O)c1ccc2sc(C(=O)NO)cc2c1` [Compound 166], the IC50 under setting [1] turned out to be 90 ± 5.6 nM.

As for `O=C(NCCc1ccccc1)c1ccc2cc(C(=O)NO)sc2c1` [Compound 161], under setting [1], the IC50 is 58 nM.

Consider `COc1ccc(CC(=O)Nc2ccc3sc(C(=O)NO)cc3c2)cc1OC` [Compound 85], for which, under setting [1], the IC50 is 76 ± 15.5 nM.

For `O=C(CN(CC(=O)Nc1ccccc1)C(=O)c1ccc2sc(C(=O)NO)cc2c1)Nc1ccccc1` [Compound 179], under setting [1], the IC50 was determined as 102 ± 26.2 nM.

As for `COc1cccc(CNC(=O)c2ccc3sc(C(=O)NO)cc3c2)c1` [Compound 167], under setting [1], the IC50 was determined as 94 ± 5.6 nM.

As to `O=C(NCCc1cc2ccccc2[nH]1)c1ccc2cc(C(=O)NO)sc2c1` [Compound 128], the IC50 under setting [1] is 144 ± 63.7 nM.

For `O=C(NO)c1cc2ccc(C(=O)N3CCN(Cc4ccccc4)CC3)cc2s1` [Compound 191], the IC50 under setting [1] is 453 ± 114 nM.

On to `O=C(Nc1ccc2sc(C(=O)NO)cc2c1)c1ccc2ccccc2c1` [Compound 41], for which the IC50 under setting [1] is 413 nM.

Regarding `COc1ccc(CN(Cc2ccc3cc(C(=O)NO)sc3c2)C2CCOCC2)cc1` [Compound 194], under setting [1], the IC50 worked out at 76 nM.

Regarding `CN(O)C(=O)c1cc2ccc(N(C)C(=O)Cc3ccccc3)cc2s1` [Compound 113], the IC50 under setting [1] stood at 30775 ± 7 nM.

In the case of `O=C(/C=C/c1ccc(C(=O)NO)s1)NCCc1ccccc1` [Compound 65], for the setting “Table 2, thiophene backbone”, the IC50 worked out at 41 nM.

For `O=C(Nc1ccc2sc(C(=O)NO)cc2c1)c1cccnc1` [Compound 37], under setting [1], the IC50 was 157 nM.

Consider `O=C(NO)c1ccc(-c2cccc(CN(Cc3ccccc3)Cc3ccnc4ccccc34)c2)s1` [Compound 71], for which the IC50 (Table 2, thiophene backbone) was found to be 461 nM.

With `O=C(NO)c1cc2cc(NS(=O)(=O)c3ccc4ccccc4c3)ccc2s1` [Compound 17], the IC50 under setting [1] is 52.5 ± 10.6 nM.

Take `O=C(NO)c1cc2cc(NS(=O)(=O)c3cccc4ccccc34)ccc2s1` [Compound 27]: the IC50 under setting [1] came to 102 ± 24 nM.

As for `O=C(NO)c1cc2ccc(COCc3ccccc3)cc2s1` [Compound 184], the IC50 under setting [1] turned out to be 199 ± 35.3 nM.

With `O=C(NO)c1cc2cc(CNCCc3ccc(OCc4ccccc4)c(OCc4ccccc4)c3)ccc2s1` [Compound 144], the IC50 under setting [1] was determined as 1580 ± 334 nM.

On to `O=C(NCc1ccccc1)c1ccc2sc(C(=O)NO)cc2c1` [Compound 111], for which the IC50 under setting [1] was 76 ± 21.2 nM.

With `COC(=O)c1ccc2sc(C(=O)NO)cc2c1` [Compound 45], under setting [1], the IC50 worked out at 737 ± 143 nM.

On to `O=C(NCc1ccc(Cl)cc1)c1ccc2cc(C(=O)NO)sc2c1` [Compound 176], for which the IC50 under setting [1] came out at 126 ± 31.1 nM.

On to `O=C(NC(c1ccccc1)c1ccccc1)c1ccc2cc(C(=O)NO)sc2c1` [Compound 132], for which the IC50 under setting [1] was found to be 284 ± 45.2 nM.

Regarding `COC(=O)c1ccc2cc(C(=O)NO)sc2c1` [Compound 23], the IC50 under setting [1] worked out at 627 ± 5.6 nM.

In the case of `O=C(Cc1ccc(F)cc1)Nc1ccc2sc(C(=O)NO)cc2c1` [Compound 84], the IC50 under setting [1] worked out at 56.5 ± 16.2 nM.

Regarding `O=C(NO)c1ccc(NC(=O)c2cccc3ccccc23)s1` [Compound 57], the IC50 (Table 2, thiophene backbone) amounted to 363 ± 16.9 nM.

Take `Nc1ccccc1NC(=O)c1cc2ccccc2s1` [Compound 103]: the IC50 under setting [1] was 1820 ± 508 nM.

With `O=C(NO)c1ccc(-c2cccc(CN(Cc3ccccc3)Cc3ccccc3)c2)s1` [Compound 61], the IC50 (Table 2, thiophene backbone) stood at 1000 nM.

For the compound `O=C(/C=C/c1ccc(C(=O)NO)s1)NCC1CCCCC1` [Compound 67], for the setting “Table 2, thiophene backbone”, the IC50 was 120 nM.

`O=C(NCCc1ccccc1)Nc1ccc2cc(C(=O)NO)sc2c1` [Compound 32]: the IC50 under setting [1] was determined as 88.5 ± 33.2 nM.

As for `Cc1ccc(S(=O)(=O)Nc2ccc3cc(C(=O)NO)sc3c2)cc1` [Compound 43], the IC50 under setting [1] amounted to 60.5 ± 2.1 nM.

As to `O=C(NO)c1cc2cc([N+](=O)O)ccc2s1` [Compound 22], the IC50 under setting [1] is 1740 ± 63.6 nM.

Turning to `O=C(CN(CCc1ccccc1)Cc1ccccc1)Nc1ccc2cc(C(=O)NO)sc2c1` [Compound 117], the IC50 under setting [1] worked out at 206 ± 50.9 nM.

Turning to `O=C(NCCc1ccccc1)c1ccc2sc(C(=O)NO)cc2c1` [Compound 105], under setting [1], the IC50 came to 155 ± 13.4 nM.
